From publication PMC5286421, “Interactions of retinoids with the ABC transporters P-glycoprotein and Breast Cancer Resistance Protein” (Scientific Reports, 2017)
Where two headings read alike, the source gives them in different places.

Legend:
[1] = system: Pgp- and ABCG2-negative NIH 3T3 and MDCK cells; test: Calcein and mitoxantrone accumulation in transporter negative cells; assay type: cell-based, mouse / canine; conditions: NIH 3T3 (calcein) and MDCK (mitoxantrone), Supplementary Fig. S1, 50 µM
Method: Supplementary Fig. S1: Effect of retinoid derivatives on the calcein (a) and
mitoxantrone (c) accumulation and viability (b, d) of Pgp- and ABCG2-negative NIH
3T3 and MDCK cells. Cells were pre-treated with retinoids added at 50 µM concentration
Cell viability was determined on the basis of propidium iodide exclusion.
(§1) (1 picture or pasted object on this page, not shown here)

ABCG2 [2] = biological target: T1, ABCG2 (Homo sapiens, UniProt Q9UNQ0); test: Vanadate-sensitive ATPase activity of ABCG2 in Sf9 membrane preparations; assay type: biochemical; conditions: cholesterol-loaded Sf9 membranes, mean ± SEM, n=3
T1 sequence (Q9UNQ0 1-655): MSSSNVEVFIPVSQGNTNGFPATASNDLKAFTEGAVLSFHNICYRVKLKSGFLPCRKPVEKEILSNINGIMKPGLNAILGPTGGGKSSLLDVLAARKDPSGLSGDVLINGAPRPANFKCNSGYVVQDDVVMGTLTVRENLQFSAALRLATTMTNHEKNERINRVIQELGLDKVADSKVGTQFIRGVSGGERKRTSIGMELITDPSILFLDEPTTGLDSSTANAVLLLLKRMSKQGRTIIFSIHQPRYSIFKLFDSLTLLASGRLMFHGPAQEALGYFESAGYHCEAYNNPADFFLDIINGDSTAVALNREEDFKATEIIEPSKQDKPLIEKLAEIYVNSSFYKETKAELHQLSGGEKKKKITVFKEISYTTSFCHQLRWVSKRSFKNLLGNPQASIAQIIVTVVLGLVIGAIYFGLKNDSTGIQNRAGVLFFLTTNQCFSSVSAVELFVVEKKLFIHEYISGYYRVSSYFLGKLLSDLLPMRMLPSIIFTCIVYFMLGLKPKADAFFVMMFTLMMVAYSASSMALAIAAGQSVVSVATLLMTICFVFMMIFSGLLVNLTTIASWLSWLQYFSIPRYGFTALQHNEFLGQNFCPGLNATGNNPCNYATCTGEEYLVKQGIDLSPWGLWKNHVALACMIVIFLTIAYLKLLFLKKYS
Method: For ATPase activity measurements we used membrane samples derived from Sf9 (Spodoptera frugiperda) insect ovarian cells expressing human Pgp or ABCG2. cDNAs of the transporters were cloned into recombinant baculovirus transfer vectors, the Sf9 insect ovarian cells were cultured, and infected with the baculoviruses as described in ref. [52]. Sf9 cells overexpressing human Pgp and ABCG2 were harvested and cell membranes were isolated. The protein concentration of the membrane samples were determined by the Lowry method. The ABCG2 expressing Sf9 membrane samples were loaded with cholesterol by cholesterol-methyl-beta-cyclodextrine complex in order to obtain high specific ATPase activity of the transporter. Membrane samples were stored at −80 °C. The transporter expression of the membrane samples (5 μg membrane protein/slot) was routinely checked by immunoblot using the G-1 mAb (for Pgp) or BXP-21 mAb (for ABCG2) and a goat anti-mouse HRP-conjugated IgG secondary antibody. Both primary and secondary antibodies were from Santa Cruz Biotechnology Inc. (CA, USA) and applied at 1:5,000 dilution.
The vanadate-sensitive ATPase activity of Pgp and ABCG2 was determined by a colorimetric assay described in refs [32],[55]. Specific ATPase activity of the transporters was calculated from the amount of released inorganic phosphate. […]. The absorbance of the samples was measured at 700 nm using a BioTek Synergy HT plate reader (BioTek Instruments, Winooski, USA).
The half-inhibitory doses (IC50) of retinoids were determined by fitting the dose-response relationships with a four parameter sigmoidal curve, where Amax and Amin are the ATPase activities measured at zero and at infinitely high inhibitor concentrations, respectively, n is the Hill coefficient and x is the concentration of the inhibitor:
Upon studying the kinetics of inhibition of the substrate-stimulated ATPase activity by retinoids data points were fitted with a modified form of the Michaelis-Menten equation[56] which includes the Hill coefficient, n: […]
v0 is the basal ATPase activity measured in the absence of the stimulatory substrate, while vmax is the maximal extent of ATPase stimulation and KM is the Michaelis constant (i.e. the substrate concentration at which the reaction rate is half of vmax).

[3] = system: Pgp-positive and Pgp-negative NIH 3T3 cells; test: AlamarBlue in vitro cytotoxicity assay; assay type: cell-based, mouse; conditions: 72 h, NIH 3T3 and NIH 3T3 MDR1, Supplementary Fig. S3
Method: Supplementary Fig. S3: Cytotoxic effect of retinyl-acetate on Pgp-positive and Pgp-negative NIH 3T3 cells. The AlamarBlue (Serotec, UK) based in vitro cytotoxicity assay was performed as previously described 1. Cells were seeded in 96-well plates at a cell density of 5 × 10^3 cells/well. 24 hours later retinyl-acetate was added at different concentrations and the plates were further incubated for 72 h at 37 °C. The cell viability was determined measuring the 530/590 nm fluorescence intensity of the dye in an automated microplate reader (BioTec Synergy HT, US). The AlamarBlue fluorescence intensity of the samples was normalized to the fluorescence of the retinyl-acetate untreated samples, and plotted as a function of retinyl-acetate concentration. The data points are means of eight parallel samples (±SD).
as §1

Pgp [4] = biological target: T2, Pgp (Homo sapiens, UniProt P08183); conditions: Sf9 membranes
T2 sequence (P08183 whole entry): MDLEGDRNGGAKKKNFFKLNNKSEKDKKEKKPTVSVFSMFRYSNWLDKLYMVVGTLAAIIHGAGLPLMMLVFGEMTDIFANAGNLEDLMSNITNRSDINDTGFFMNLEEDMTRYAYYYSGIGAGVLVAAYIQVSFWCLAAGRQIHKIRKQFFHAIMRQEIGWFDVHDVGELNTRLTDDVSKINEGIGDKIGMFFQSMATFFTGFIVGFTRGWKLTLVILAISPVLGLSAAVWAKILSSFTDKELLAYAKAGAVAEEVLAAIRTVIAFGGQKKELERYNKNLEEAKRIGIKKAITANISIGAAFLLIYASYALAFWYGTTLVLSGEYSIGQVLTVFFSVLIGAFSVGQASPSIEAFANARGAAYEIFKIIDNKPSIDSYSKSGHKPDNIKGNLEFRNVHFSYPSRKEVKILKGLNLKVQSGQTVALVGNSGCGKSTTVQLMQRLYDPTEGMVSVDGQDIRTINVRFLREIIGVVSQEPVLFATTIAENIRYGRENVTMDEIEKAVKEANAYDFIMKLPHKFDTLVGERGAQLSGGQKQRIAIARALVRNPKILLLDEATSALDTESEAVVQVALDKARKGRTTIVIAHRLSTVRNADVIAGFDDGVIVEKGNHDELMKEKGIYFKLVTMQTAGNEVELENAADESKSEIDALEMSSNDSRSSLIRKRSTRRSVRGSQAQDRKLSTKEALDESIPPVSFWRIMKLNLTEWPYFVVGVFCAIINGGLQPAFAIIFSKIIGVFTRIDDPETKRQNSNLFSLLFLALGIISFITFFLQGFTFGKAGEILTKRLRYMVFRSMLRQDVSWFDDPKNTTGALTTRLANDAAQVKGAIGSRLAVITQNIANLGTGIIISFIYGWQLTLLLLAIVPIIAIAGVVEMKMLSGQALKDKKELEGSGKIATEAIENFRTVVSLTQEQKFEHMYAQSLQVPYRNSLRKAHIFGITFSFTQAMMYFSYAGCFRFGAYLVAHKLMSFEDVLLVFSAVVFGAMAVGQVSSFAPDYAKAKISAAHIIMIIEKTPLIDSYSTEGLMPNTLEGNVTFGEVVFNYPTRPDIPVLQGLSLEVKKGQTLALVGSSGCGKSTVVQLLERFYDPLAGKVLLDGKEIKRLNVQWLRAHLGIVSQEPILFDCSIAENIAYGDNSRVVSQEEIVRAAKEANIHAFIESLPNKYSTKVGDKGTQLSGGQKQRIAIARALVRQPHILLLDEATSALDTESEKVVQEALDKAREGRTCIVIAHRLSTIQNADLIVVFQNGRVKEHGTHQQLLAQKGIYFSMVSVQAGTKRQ
Method: (§2) For ATPase activity measurements we used membrane samples derived from Sf9 (Spodoptera frugiperda) insect ovarian cells expressing human Pgp or ABCG2. cDNAs of the transporters were cloned into recombinant baculovirus transfer vectors, the Sf9 insect ovarian cells were cultured, and infected with the baculoviruses as described in ref. [52]. Sf9 cells overexpressing human Pgp and ABCG2 were harvested and cell membranes were isolated. The protein concentration of the membrane samples were determined by the Lowry method[53]. The ABCG2 expressing Sf9 membrane samples were loaded with cholesterol by cholesterol-methyl-beta-cyclodextrine complex in order to obtain high specific ATPase activity of the transporter[54]. Membrane samples were stored at −80 °C. The transporter expression of the membrane samples (5 μg membrane protein/slot) was routinely checked by immunoblot using the G-1 mAb (for Pgp) or BXP-21 mAb (for ABCG2) and a goat anti-mouse HRP-conjugated IgG secondary antibody. Both primary and secondary antibodies were from Santa Cruz Biotechnology Inc. (CA, USA) and applied at 1:5,000 dilution.
(§3) The vanadate-sensitive ATPase activity of Pgp and ABCG2 was determined by a colorimetric assay described in refs [32],[55]. Specific ATPase activity of the transporters was calculated from the amount of released inorganic phosphate. […] The absorbance of the samples was measured at 700 nm using a BioTek Synergy HT plate reader (BioTek Instruments, Winooski, USA).

[5] = biological target: P-gp (human Pgp), basal vanadate-sensitive ATPase activity (Homo sapiens, UniProt P08183); test: in vitro; conditions: membranes of Sf9 insect cells expressing human Pgp, IC50 values, 10 min pre-incubation 37 °C, 3 mM ATP/Mg2+ 25 min, mean ± SEM, n=3
Chain of P-gp (human Pgp), basal vanadate-sensitive ATPase activity (P08183 whole entry): as above
Method: as §2, §3

[6] = ref PubChem Compound Database (CID); cited from earlier work
Pgp [7] = biological target: T2, Pgp; test: biochemical; conditions: IC50 values, Pgp stimulated (verapamil-stimulated) ATPase activity, 40 μM verapamil; Sf9 membranes; mean ± SEM, n=3
Method: as §2, §3

[8] = system: NIH 3T3 / NIH 3T3 MDR1 and MDCK / MDCK ABCG2 cells; test: DPH steady-state fluorescence anisotropy (membrane fluidity); conditions: retinoids 100 μM; for Effect on DPH fluorescence anisotropy: cyclosporin 10 μM, Ko143 2 μM, 10 min 37 °C, all tested cell lines
Pgp [9] = biological target: T2, Pgp; test: Calcein accumulation test (Pgp transport activity) in NIH 3T3 MDR1 cells; conditions: 20 min pre-treatment 37 °C, 500 nM calcein-AM 20 min
Method: (§4) Calcein-AM was applied to measure the transport activity of Pgp[51], while ABCG2 mediated transport was measured in mitoxantrone accumulation tests[18]. Cells were harvested and washed three times in PBS containing 7 mM glucose (gl-PBS). […] Dead cells were excluded from the analysis on the basis of propidium iodide (PI) staining.
(§5) Flow cytometric analysis was carried out on a Becton Dickinson FACSAria III Cell Sorter (Becton Dickinson, Mountain View, CA, USA). Calcein was excited by the 488 nm line of a solid state laser and the emitted light was detected using a 502 nm dichroic mirror and a 530/30 nm band-pass filter. […] AlexaFluor647 and mitoxantrone signals were detected with a 633 nm excitation laser and a 660/20 nm band-pass filter.

ABCG2 [10] = biological target: T1, ABCG2; test: Mitoxantrone accumulation test (ABCG2 transport activity) in MDCK ABCG2 cells; conditions: 20 min pre-treatment 37 °C, 5 μM mitoxantrone 40 min
Method: as §4, §5

[11] = system: NIH 3T3 / NIH 3T3 MDR1 and MDCK / MDCK ABCG2 cells; test: TMA-DPH steady-state fluorescence anisotropy (membrane fluidity)

SMILES	Effect on substrate accumulation of transporter negative cells [1]	IC50 (ABCG2 [2]; 10 μM quercetin, read-out: IC50 values, ABCG2 stimulated (quercetin-stimulated) ATPase activity) [µM]	IC50 (ABCG2 [2]; read-out: IC50 values, ABCG2 basal ATPase activity) [µM]	Cytotoxicity profile in Pgp+ versus Pgp− cells [3]	Effect on the basal ATPase activity of Pgp (Pgp [4]; Fig. 2c)	IC50 at 25 min [5] [µM]	LogP (octanol-water partition coefficient, LogPow) [6]	IC50 (Pgp [7]) [µM]	Effect on DPH fluorescence anisotropy [8]	Effect on DPH anisotropy in transporter expressing compared to non-expressing cells ([8]; Pgp+ vs Pgp− NIH 3T3, ABCG2 expressing vs non-expressing MDCK)	Effect on calcein accumulation of Pgp expressing cells (Pgp transport activity) (Pgp [9])	Effect on mitoxantrone accumulation of ABCG2 expressing cells (ABCG2 transport activity) (ABCG2 [10])	Effect on TMA-DPH fluorescence anisotropy ([11]; retinoids 100 μM, cyclosporin 10 μM, Ko143 2 μM, 10 min 37 °C)	IC50 values, ABCG2 stimulated (quercetin-stimulated) ATPase activity (ABCG2 [2]; 10 μM quercetin)	IC50 values, ABCG2 basal ATPase activity (ABCG2 [2])	IC50 values, Pgp stimulated (verapamil-stimulated) ATPase activity (Pgp [4]; 40 μM verapamil, mean ± SEM, n=3)	IC50 values, Pgp basal ATPase activity (Pgp [4]; 10 min pre-incubation 37 °C, 3 mM ATP/Mg2+ 25 min, mean ± SEM, n=3)	Effect on TMA-DPH fluorescence anisotropy, NIH 3T3 cell pair ([11]; 100 μM, NIH 3T3 and NIH 3T3 MDR1 cells)
CC(=O)OC/C=C(C)/C=C/C=C(C)/C=C/C1=C(C)CCCC1(C)C [Retinyl-acetate]	did not have any effect	70.4 ± 7.3	18.9 ± 4	identical cytotoxicity profile	slightly stimulated	36.8 ± 4	6.3	19.1 ± 5	increased the DPH fluorescence anisotropy values significantly	significantly lower effect	increased the cellular accumulation of the fluorescent transporter substrates in a concentration dependent manner	increased the cellular accumulation of the fluorescent transporter substrates in a concentration dependent manner						
COc1ccc2c3c([nH]c2c1)[C@H](CC(C)C)N1C(=O)[C@H](CCC(=O)OC(C)(C)C)NC(=O)[C@@H]1C3 [Ko143]							3.5		do not affect the overall membrane fluidity				do not affect the overall membrane fluidity					
CCCCCCCCCCCCCCCC(=O)OC/C=C(C)/C=C/C=C(C)/C=C/C1=C(C)CCCC1(C)C [Retiny-palmitate, Retinyl-palmitate]											none of them had any effect	none of them had any effect		No effect	No effect	No effect	No effect	decreased the TMA-DPH anisotropies significantly
